Experimental data as given in the supplement of paper PMC10307832.

Key:
Assay in all cases: relative viability (nuclei count vs DMSO), 5 days (fraction); higher = more cells survive
[1] = compound: C1CNCCC1C2=CC(=NN2)C3=CC=NC=C3 + CC1(C)CCC(c2ccc(Cl)cc2)=C(CN2CCN(c3ccc(C(=O)NS(=O)(=O)c4ccc(N[C@H](CCN5CCOCC5)CSc5ccccc5)c(S(=O)(=O)C(F)(F)F)c4)cc3)CC2)C1 [Navitoclax] (partner 0.5 µM)
Procedure, shortened: (§1)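 Lung cancer cell lines, seeded in 1536-well plates, were treated the following day by pin tool with a single drug or with five library-drug doses (not always all listed) in √10 steps on top of a fixed anchor-drug dose. Cells were fixed and nuclei stained in one step after 5 days, and nuclei were counted. Relative viability is the nuclei count for treated wells divided by that for vehicle wells, reported as medians of duplicate plates.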

[2] = compound: C1CNCCC1C2=CC(=NN2)C3=CC=NC=C3 + Cc1nc(NC(=O)N2CCC[C@H]2C(N)=O)sc1-c1ccnc(C(C)(C)C(F)(F)F)c1 [Alpelisib] (partner 2 µM)
Procedure, shortened: as §1

Tanzisertib + Vorinostat = compound: O[C@H]1CC[C@H](Nc2ncc3nc(Nc4c(F)cc(F)cc4F)n([C@H]4CCOC4)c3n2)CC1 [Tanzisertib] + O=C(CCCCCCC(=O)Nc1ccccc1)NO [Vorinostat] (partner 1 µM)
Procedure, shortened: as §1

[3] = compound: C[C@@H](N)c1ccc(C(=O)Nc2ccnc3[nH]ccc23)cc1 + Cc1cc(Nc2cc(N3CCN(C)CC3)nc(Sc3ccc(NC(=O)C4CC4)cc3)n2)n[nH]1 [Tozasertib] (partner 0.1 µM)
Procedure, shortened: as §1

UMC-11
relative viability ([1]; first compound 0.08 µM): 0.3 | relative viability ([1]; first compound 0.8 µM): 0.344 | relative viability ([1]; first compound 2.53 µM): 0.321 | relative viability ([1]; first compound 8 µM): 0.355 | relative viability ([2]; first compound 0.08 µM): 0.815 | relative viability ([2]; first compound 0.8 µM): 1.22 | relative viability ([2]; first compound 2.53 µM): 0.911 | relative viability ([2]; first compound 8 µM): 1.03 | relative viability (Tanzisertib + Vorinostat; first compound 0.08 µM): 0.41 | relative viability (Tanzisertib + Vorinostat; first compound 0.253 µM): 0.401 | relative viability (Tanzisertib + Vorinostat; first compound 0.8 µM): 0.438 | relative viability (Tanzisertib + Vorinostat; first compound 2.53 µM): 0.404 | relative viability (Tanzisertib + Vorinostat; first compound 8 µM): 0.388 | relative viability ([3]; first compound 0.04 µM): 0.215 | relative viability ([3]; first compound 0.1265 µM): 0.18 | relative viability ([3]; first compound 0.4 µM): 0.205 | relative viability ([3]; first compound 4 µM): 0.198
